# Reference: patent US20040235098A1, “Sulfotransferase sequence variants” (Mayo Foundation for Medical Education and Research, a …, priority 1998, published 2004)
# What was measured:
# SULT1A2*1 [1] = molecular target: T1, SULT1A2*1 (Homo sapiens, UniProt P50226); assay: Substrate kinetics of recombinant SULT1A2*1; format: biochemical; settings: 100 μM 4-nitrophenol, mean±SEM of nine
# T1 construct: made in house; host or cells: COS-1 cells, pCR3.1 vector, unpurified cytosol
# Experimental: (§1) Res. Commun., 198:1119-1127 (1994).
# (§2) Expression constructs for each of the common (frequencies≧1%) allozymes for SULT1A1 and SULT1A2 were used to transfect COS-1 cells. Selected biochemical and physical properties of the expressed enzymes were then determined. Those properties included apparent Km values for the two cosubstrates for the enzyme reaction (4-nitrophenol and PAPS); thermal stability; and sensitivity to inhibition by DCNP. The substrate kinetic experiments were performed in two steps. Initially a wide range of concentrations of 4-nitrophenol that varied over at least three orders of magnitude was tested, followed by detailed study of concentrations close to the apparent Km value for that allozyme. […] Data from these experiments were then used to construct double inverse plots that were used to calculate apparent Km values (Table 5).
# SULT1A1*3 [2] = molecular target: T2, SULT1A1*3 (Homo sapiens, UniProt P50225); assay: Substrate kinetics of recombinant SULT1A1*3; format: biochemical; settings: 4 μM 4-nitrophenol, mean±SEM of nine, read-out: Apparent Km PAPS
# T2 construct: made in house; host or cells: COS-1 cells, pCR3.1 vector, unpurified cytosol
# Experimental: as §1, §2
# SULT1A1*2 = SULT1A1*2 (Homo sapiens, UniProt P50225, R213H/V223M); assay: Substrate kinetics of recombinant SULT1A1*2; format: biochemical; settings: 4 μM 4-nitrophenol, mean±SEM of nine, read-out: Apparent Km PAPS
# Experimental: as §1, §2
# SULT1A1*1 [3] = molecular target: T3, SULT1A1*1 (Homo sapiens, UniProt P50225); assay: Substrate kinetics of recombinant SULT1A1*1; format: biochemical; settings: 4 μM 4-nitrophenol, mean±SEM of nine, read-out: Apparent Km PAPS
# T3 construct: made in house; host or cells: COS-1 cells, pCR3.1 vector, unpurified cytosol
# Experimental: as §1, §2
# SULT1A2*3 [4] = molecular target: T4, SULT1A2*3 (Homo sapiens, UniProt P50226, P19L); assay: Substrate kinetics of recombinant SULT1A2*3; format: biochemical; settings: 50 μM 4-nitrophenol, mean±SEM of nine, read-out: Apparent Km PAPS
# T4 construct: made in house; host or cells: COS-1 cells, pCR3.1 vector, unpurified cytosol
# Experimental: as §1, §2
# SULT1A2*2 [5] = molecular target: T5, SULT1A2*2 (Homo sapiens, UniProt P50226, I7T/N235T); assay: Substrate kinetics of recombinant SULT1A2*2; format: biochemical; settings: mean±SEM of nine
# T5 construct: made in house; host or cells: COS-1 cells, pCR3.1 vector, unpurified cytosol
# Experimental: as §1, §2
# SULT1A2 = settings: 100 μM 4-nitrophenol; cytosol from six pooled liver samples; three attempts
# Experimental: Human hepatic “surgical waste” tissue was obtained from 61 patients undergoing clinically-indicated hepatectomies or open hepatic biopsies and was stored at −80° C. These frozen hepatic tissue samples were homogenized in 5 mM potassium phosphate buffer, pH 6.5, and centrifuged at 100,000×g for 1 hr to obtain high-speed supernatant (HSS) cytosolic preparations. […] All tissue samples were obtained under guidelines approved by the Mayo Clinic Institutional Review Board.
# Unless otherwise stated, concentrations of 4-nitrophenol and PAPS were 4 μM and 0.4 μM, respectively. […] Enzyme activity was expressed as nmoles of sulfate conjugated product formed per hr of incubation. Protein concentrations were measured by the dye-binding method of Bradford with bovine serum albumin (BSA) as a standard.
# Therefore, 100 μM 4-nitrophenol was used as a substrate with cytosol from six pooled liver samples in an attempt to measure SULT1A2 activity.
# SULT1A3 [6] = molecular target: T6, SULT1A3 (Homo sapiens, UniProt P0DMM9); assay: Substrate kinetics of recombinant SULT1A3; format: biochemical; settings: 3.9 to 3000 μM 4-nitrophenol, mean±SEM of nine
# T6 construct: made in house; host or cells: COS-1 cells, pCR3.1 vector, unpurified cytosol
# SULT1A1*3 [7] = molecular target: T2, SULT1A1*3; assay: DCNP inhibition of recombinant SULT1A1*3 (COS-1 cell cytosol); format: biochemical; settings: 4 μM 4-nitrophenol, mean±SEM of nine determinations
# Experimental: as §1
# (§3) Finally, sensitivity of the recombinant proteins to inhibition by DCNP was determined. Sixteen different concentrations of DCNP, ranging from 0.01 to 1000 μM, were tested with each recombinant allozyme.
# SULT1A2*2 [8] = molecular target: T5, SULT1A2*2; assay: DCNP inhibition of recombinant SULT1A2*2 (COS-1 cell cytosol); format: biochemical; settings: 3000 μM 4-nitrophenol, mean±SEM of nine determinations
# Experimental: as §1, §3
# TL PST = TL PST (Homo sapiens, UniProt P0DMM9); settings: thermolabile monoamine-preferring form; cited from earlier work
# SULT1A2*3 [9] = molecular target: T4, SULT1A2*3; assay: DCNP inhibition of recombinant SULT1A2*3 (COS-1 cell cytosol); format: biochemical; settings: 50 μM 4-nitrophenol, mean±SEM of nine determinations
# Experimental: as §1, §3
# SULT1A2*1 [10] = molecular target: T1, SULT1A2*1; assay: DCNP inhibition of recombinant SULT1A2*1 (COS-1 cell cytosol); format: biochemical; settings: 100 μM 4-nitrophenol, mean±SEM of nine determinations
# Experimental: as §1, §3
# SULT1A1*1 [11] = molecular target: T3, SULT1A1*1; assay: DCNP inhibition of recombinant SULT1A1*1 (COS-1 cell cytosol); format: biochemical; settings: 4 μM 4-nitrophenol, mean±SEM of nine determinations
# Experimental: as §1, §3
# TS PST = settings: thermostable phenol-preferring form; cited from earlier work
# SULT1A3 [12] = molecular target: T6, SULT1A3; assay: DCNP inhibition of recombinant SULT1A3 (COS-1 cell cytosol); format: biochemical; settings: 3000 μM 4-nitrophenol, mean±SEM of nine determinations
# Experimental: as §1, §3
# T6 sequence (P0DMM9 whole entry): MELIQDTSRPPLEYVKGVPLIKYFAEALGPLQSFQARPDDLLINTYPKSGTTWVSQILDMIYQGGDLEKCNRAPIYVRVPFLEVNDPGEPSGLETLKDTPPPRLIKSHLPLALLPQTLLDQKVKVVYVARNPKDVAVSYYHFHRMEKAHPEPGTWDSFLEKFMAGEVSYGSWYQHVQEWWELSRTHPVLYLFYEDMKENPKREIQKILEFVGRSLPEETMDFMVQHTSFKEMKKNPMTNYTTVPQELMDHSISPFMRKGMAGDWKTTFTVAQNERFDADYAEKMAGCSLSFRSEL
# T4 sequence (P50226 whole entry P19L): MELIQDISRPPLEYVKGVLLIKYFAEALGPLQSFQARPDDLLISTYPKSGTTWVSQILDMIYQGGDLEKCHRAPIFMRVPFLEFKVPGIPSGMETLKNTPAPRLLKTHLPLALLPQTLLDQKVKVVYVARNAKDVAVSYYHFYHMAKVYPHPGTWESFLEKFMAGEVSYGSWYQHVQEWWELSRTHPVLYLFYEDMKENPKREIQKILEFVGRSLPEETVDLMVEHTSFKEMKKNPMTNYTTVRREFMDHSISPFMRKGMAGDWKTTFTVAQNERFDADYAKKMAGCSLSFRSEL
# T5 sequence (P50226 whole entry I7T/N235T): as the sequence (P50226 whole entry P19L) above, with I7T, L19P, N235T counted along it
# SULT1A1*2, sequence (P50225 whole entry R213H/V223M): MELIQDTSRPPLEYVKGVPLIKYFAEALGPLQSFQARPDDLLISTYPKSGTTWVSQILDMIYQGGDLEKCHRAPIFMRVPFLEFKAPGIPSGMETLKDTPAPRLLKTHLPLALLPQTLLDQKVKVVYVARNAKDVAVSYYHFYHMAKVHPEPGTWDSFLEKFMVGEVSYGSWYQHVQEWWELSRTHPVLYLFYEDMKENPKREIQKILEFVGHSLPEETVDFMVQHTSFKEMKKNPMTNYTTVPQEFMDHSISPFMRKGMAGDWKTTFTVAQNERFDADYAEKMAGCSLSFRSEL
# TL PST, sequence (P0DMM9 whole entry): as the sequence (P0DMM9 whole entry) above
structure (smiles),measurement,setting,value
"Nc1ncnc2c1ncn2[C@@H]1O[C@H](COP(=O)(O)OS(=O)(=O)O)[C@@H](OP(=O)(O)O)[C@H]1O [PAPS, 3′-phosphoadenosine-5′-phosphosulfate]",Apparent Km PAPS,SULT1A2*1 [1],approximately an order of magnitude lower
same,Km,SULT1A2*1 [1]; read-out: Apparent Km PAPS,0.05 ± 0.001 µM
same,Km,SULT1A1*3 [2],0.17 ± 0.02 µM
same,Km,SULT1A1*2,0.98 ± 0.03 µM
same,Km,SULT1A1*1 [3],1.21 ± 0.02 µM
same,Km,SULT1A2*3 [4],0.28 ± 0.006 µM
same,Km,"SULT1A2*2 [5]; 3000 μM 4-nitrophenol, read-out: Apparent Km PAPS",0.5 ± 0.001 µM
O=[N+]([O-])c1ccc(O)cc1 [4-nitrophenol],SULT1A2 activity (sulfation of 4-nitrophenol),SULT1A2,no activity was detected
same,Apparent Km 4-Nitrophenol,SULT1A3 [6],very high
same,Apparent Km 4-Nitrophenol,SULT1A2*2 [5]; 1.0 to 1000 μM 4-nitrophenol,very high
"O=[N+]([O-])c1cc(Cl)c(O)c(Cl)c1 [DCNP, 2,6-dichloro4-nitrophenol]",IC50,SULT1A1*3 [7],1.32 ± 0.27 µM
same,IC50,SULT1A2*2 [8],44.4 ± 1.5 µM
same,sensitivity to inhibition by DCNP,TL PST,relatively insensitive
same,DCNP Inhibition IC50,SULT1A2*3 [9],most
same,IC50,SULT1A2*3 [9],0.97 ± 0.001 µM
same,IC50,SULT1A2*1 [10],6.94 ± 0.55 µM
same,IC50,SULT1A1*1 [11],1.44 ± 0.11 µM
same,sensitivity to inhibition by DCNP,TS PST,sensitive to inhibition
same,DCNP Inhibition IC50,SULT1A3 [12],least sensitive to inhibition
same,IC50,SULT1A3 [12],86.9 ± 6 µM
